This is an account of results in publication PMC5613062 (Investigational New Drugs, 2017).

Where two headings read alike, the source gives them in different places.

Series [1] can be described thus: Pharmacokinetics alone and in combination, selumetinib + temsirolimus arm. Type of series: in vivo, human. The following applies: for Cmax / AUC(0-t) / AUC(0–12): geometric mean (% CV); for AUC(0-t): read-out: AUC(0–8); for AUC(0–12): read-out: AUC(0–12); for tmax: median (range).
Method: PK parameters were derived using non-compartmental analysis. Cmax and tmax were determined by visual inspection of the plasma concentration-time profiles. AUC(0–12) was calculated by the linear trapezoidal rule. Where more than one maximum occurred, the reported value was assigned to the first occurrence.
On the set-up of series [2]: method as in product label. The following applies: ref product label; cited from earlier work.
Details of series [3]: method as in LoRusso et al 2005. Conditions: Phase I-II trial; ref LoRusso et al 2005; cited from earlier work.
The mark [4] stands for this setting: human, plasma, iv, dosed alone, selumetinib 50 mg cohort (N = 25), temsirolimus 25 mg IV.
Setting [5] is: human, plasma, iv, dosed alone, selumetinib 75 mg cohort (N = 6), temsirolimus 25 mg IV.
Setting [6] is: human, plasma, iv, dosed in combination, selumetinib 50 mg BID (N = 22) + temsirolimus 25 mg IV.
[7] abbreviates: human, plasma, iv, dosed in combination, selumetinib 75 mg BID (N = 5) + temsirolimus 25 mg IV.

In the case of `CO[C@H]1C[C@@H]2CC[C@@H](C)[C@@](O)(O2)C(=O)C(=O)N2CCCC[C@H]2C(=O)O[C@H]([C@H](C)C[C@@H]2CC[C@@H](OC(=O)C(C)(CO)CO)[C@H](OC)C2)CC(=O)[C@H](C)/C=C(\C)[C@@H](O)[C@@H](OC)C(=O)[C@H](C)C[C@H](C)/C=C/C=C/C=C/1C` [Temsirolimus], the Cmax in series [1] (dosed alone, selumetinib 75 mg cohort (N = 6), temsirolimus 25 mg IV) was 749.2 (24.61) [5] ng/mL; in series [1] (human, plasma, iv, dosed alone, selumetinib 50 mg cohort (N = 25), temsirolimus 25 mg IV, read-out: Cmax), 0.669 µg/mL; in series [1] (human, plasma, iv, dosed in combination, selumetinib 50 mg BID (N = 22) + temsirolimus 25 mg IV, read-out: Cmax) it was 0.651 µg/mL; in series [1] (human, plasma, iv, dosed in combination, selumetinib 75 mg BID (N = 5) + temsirolimus 25 mg IV, read-out: Cmax), 0.695 µg/mL. The AUC(0-t) in series [1] (setting [4]) came out at 1.58 µg·h/mL; in series [1] (setting [5]) it was 1.74 µg·h/mL; in series [1] (setting [6]), 1.46 µg·h/mL; in series [1] (setting [7]), 1.54 µg·h/mL. Also, the AUC(0–12) in series [1] (setting [4]) is 1.88 µg·h/mL; in series [1] (setting [5]), 1.91 µg·h/mL; in series [1] (setting [6]), 1.61 µg·h/mL; in series [1] (setting [7]) it was 1.74 µg·h/mL. The tmax in series [1] (dosed in combination, selumetinib 50 mg BID (N = 22) + temsirolimus 25 mg IV) was 1.0 (0.5–1.5) h; in series [1] (dosed in combination, selumetinib 75 mg BID (N = 5) + temsirolimus 25 mg IV) it was 0.5 (0.5–1.0) h. In addition, the “PK parameters when administered alone and in combination” value in series [1] (selumetinib + temsirolimus arm) is listed as “similar”. Besides, in series [2], the “most common (incidence ≥30%) adverse reactions” value is “rash, asthenia, mucositis, nausea, edema, and anorexia”.

For `O=C(NOC[C@H](O)CO)c1ccc(F)c(F)c1Nc1ccc(I)cc1F` [PD-0325901], in series [3], the patients reporting rash is 49%.
